Measured values published in patent publication US20240335465A1 (University of Virginia Patent Foundation, priority 2021, published 2024).

How the values were obtained:
[1] = tested on: γH2AX; experiment: γH2AX immunofluorescence (human RPE, THP1 cells); type: cell-based
Method: Immunofluorescence Staining: 16,500 adherent cells/cm^2 were plated on a gelatin coated 8-chamber slide (VWR, Catalogue #62407-296) and treated as indicated. Media was removed and cells were washed with 1×PBS with Ca^2+/Mg^2+ and fixed with 4% PFA for 20 minutes. Fixed cells were permeabilized with PBS+0.1% Triton-X and washed 3 times with PBS+0.1% Tween20. After treatment as indicated, non-adherent THP1 cells were collected by centrifugation, washed in cold PBS and fixed in PFA. Post-fixation, they were washed with PBS, spotted on gelatin coated “PTFE” Printed Slides (Electron Microscopy Sciences, Cat #63424-06), and air-dried. For γH2AX staining, permeabilized cells were blocked in Serum-free DAKO Protein Block (Agilent, Catalogue #X0909) for 1 hr at room temperature. Cells were incubated in primary antibody (γH2AX, 1:500; anti-HA, 1:100; Table 1) in DAKO antibody diluent at 4° C. overnight on a rocker platform. U2OS-STING cells undergoing Rad51 staining were first fixed in methanol for 20 minutes in −20° C., blocked for 1 hr with donkey block (2% normal donkey serum, 1% BSA, 0.1% Triton X 100, 0.05% Tween20, 0.05% Sodium Azide in PBS), then finally incubated in an anti-Rad51 antibody overnight at 4° C. (Bio-academia Cat #70-001, 1:6000 in 5% milk in TBST). For RPA70 staining, cells were fixed in 4% PFA at room temperature for 20 minutes and blocked in Cell Signaling blocking buffer (1×PBS/5% normal donkey serum/0.3% Triton™ X-100) for 1 hr in room temperature then incubated in an RPA70 antibody (Cell Signaling Cat #2267, 1:50 in blocking buffer) overnight at 4° C. Primary antibody was washed 3 times and incubated with secondary antibodies (Invitrogen, Alexa 555, 488) for 1 hr at room temperature. Coverslips were mounted on the cells with ProLong™ Gold Antifade mounting media with DAPI (Thermofisher, Catalogue #P36935). All images were obtained by confocal microscopy (Nikon, C2).

[2] = tested on: THP1 cells; experiment: CellTiter 96 AQueous One Solution Cell Proliferation (MTS) assay; type: cell-based, human
Method: Cell Viability Assay: MTS assays were performed using the CellTiter 96 AQueous One Solution Cell Proliferation Assay (Promega) according to the manufacturer's instructions. […] 48 hours the later MTS assay was performed according the to manufacturer's protocol.

[3] = tested on: DDR signaling; experiment: DDR signaling immunoblot in STING-reconstituted U2OS cells; type: cell-based, human; settings: cGAMP 18 hours
Method: Generation of U2OS-STING cells: WT U2OS cells were reconstituted with STING by integrating LentiORF-TMEM173 (CCSB-Broad Lentiviral Expression Collection, TMEM173, Cat #ccsbBroad304_05465) via lentiviral transduction of U2OS cells as described above. Exposure to blasticidin (10 μg/ml) for 14 days facilitated the selection of STING integrated cells whose protein over-expression profiles were assessed by immunoblotting.

[4] = tested on: HEK293-TrLR cells; experiment: HDR and NHEJ assay using Traffic Light Reporter; type: cell-based, human
Method: TrLR-integrated HEK293 cells were selected through exposure to 5 μg/ml puromycin for 2 weeks. […] 8 hours following this procedure, cells were transfected with pCVL SFFV d14GFP Donor (Addgene Cat #31475), pCBASceI (Addgene Cat #26477)), or Donor+SceI using Lipofectamine 3000. 72 hours post-transfection, cells were trypsinized, collected, and analyzed with an Attune NxT flow cytometer (Thermofisher). To quantify the DNA repair events, ˜10,000-30,000 cells were acquired on an Attune NxT cytometer and analyzed using FCS Express software. Single cell events were determined by gating on the area against the width of the forward scatter pulse signal. Debris removal was performed by excluding events with very low forward and side scatter. For determining % of GFP and mCherry positive cells we established positive and negative populations using mock transfections as negative controls and GFP or mCherry transfected samples as Fluorescence Minus One controls.

[5] = tested on: HEK293-ACE reporter cells; experiment: ACE CRISPR/Cas9 reporter system; type: cell-based, human; settings: cGAMP transfection; interferon β 50 ng/ml
Method: ACE CRISPR/Cas9 reporter system: The ACE reporter (Addgene #109428) described previously (Aird et al., 2018; St. Martin et al., 2018) was integrated in HEK293 cells using lentiviral transduction. ACE reporter integrated cells (GFP+) were sorted in a Becton Dickinson Influx Cell Sorter and propagated. […] 72 hours post RNP transfection, cells were trypsinized, collected, and analyzed with an Attune NxT flow cytometer (Thermofisher). To quantify the HDR DNA repair events, ˜10,000-30,000 cells were acquired on an Attune NxT cytometer and analyzed using FCS Express software. Single cell events were determined by gating on the area against the width of the forward scatter pulse signal. Debris removal was performed by excluding events with very low forward and side scatter. For determining % of mCherry positive cells we established positive and negative populations using mock transfections as negative controls and mCherry transfected samples as Fluorescence Minus One controls.

[6] = tested on: U2OS-STING cells; experiment: RAD51 and RPA70 foci in EdU+ U2OS-STING cells; type: cell-based, human; settings: EdU-positive S-phase cells, Camptothecin 5 μM 16 hours
Method: Immunofluorescence Staining: 16,500 adherent cells/cm^2 were plated on a gelatin coated 8-chamber slide (VWR, Catalogue #62407-296) and treated as indicated. Media was removed and cells were washed with 1×PBS with Ca^2+/Mg^2+ and fixed with 4% PFA for 20 minutes. Fixed cells were permeabilized with PBS+0.1% Triton-X and washed 3 times with PBS+0.1% Tween20. After treatment as indicated, non-adherent THP1 cells were collected by centrifugation, washed in cold PBS and fixed in PFA. Post-fixation, they were washed with PBS, spotted on gelatin coated “PTFE” Printed Slides (Electron Microscopy Sciences, Cat #63424-06), and air-dried. For γH2AX staining, permeabilized cells were blocked in Serum-free DAKO Protein Block (Agilent, Catalogue #X0909) for 1 hr at room temperature. Cells were incubated in primary antibody (γH2AX, 1:500; anti-HA, 1:100; Table 1) in DAKO antibody diluent at 4° C. overnight on a rocker platform. […]
EdU incorporated cells were detected by confocal microscopy after Click-iT® EdU labeling following the manufacturer's protocol (Click-iT™ EdU Alexa Fluor™ 594 Imaging Kit, Thermo Fisher Cat #C10339).

[7] = tested on: PARP; experiment: PARP activity assay; type: cell-based, human
Method: Post cGAMP treatment, cells were collected by centrifugation and washed with cold PBS once and resuspended in Cell Extraction Buffer. PARP activity was measured using the Chemiluminescent Assay Kit (R&D, Catalog Number: 4685-096-K) following manufacturer's protocol.

[8] = tested on: PARP1, PARP2, Tankyrase; experiment: PARP1, PARP2, Tankyrase abundance immunoblot; type: cell-based, human
[9] = tested on: Crassostrea virginica; experiment: DDR in oysters after adductor muscle injection; type: in vivo; settings: hemocytes; cGAMP 25 μg/50 gm, doxorubicin 1 μg/50 gm oyster weight, 16 hours
Method: Oysters: Wild adult eastern oysters (Crassostrea virginica) of both male and female sexes ranging from 2 cm-7 cm in length (1 to 3 years in age) were collected from a natural oyster reef on Virgnia's Eastern Shore. Following collection, the diploid oysters were placed on ice and transported approximately 3 h to the University of Virginia main campus in Charlottesville, VA. There they were stored in an aerated aquarium containing water supplemented with Instant Ocean® Aquarium Sea Salt (50 gm/l). […] Treated oysters were kept at 4° C. in the dark for 16 hours after which they were shucked, had their hemolymph/tissues harvested for analysis by western blotting, and dead oyster and shell were disposed of.

[10] = tested on: DDR signaling; experiment: DDR signaling immunoblotting in primary mouse embryonic fibroblasts

Compound: Nc1nc2c(ncn2[C@@H]2O[C@@H]3COP(=O)(O)O[C@H]4[C@@H](O)[C@H](n5cnc6c(N)ncnc65)O[C@@H]4COP(=O)(O)O[C@@H]2[C@@H]3O)c(=O)[nH]1 [cGAMP, cyclic guanosine monophosphate-adenosine monophosphate]
- cGAMP-induced pan-nuclear γH2AX staining ([1]; WT, STING−/−, shIFNAR THP1 cells, 16 hours): suppressed in STING^−/− but not in sh-IFNAR THP1 cells
- γH2AX staining pattern ([1]; human RPE cells, doxorubicin 2 hours, cGAMP or HT-DNA 6 hours): γH2AX marked by pan-nuclear staining
- sensitization to IR in rucaparib-pretreated cells ([2]; WT THP1, 10 μM Rucaparib, 10Gy, 48 hours): unable to further sensitize cells to IR
- sensitivity to ionizing radiation (cell survival) ([2]; WT THP1, 10Gy, 48 hours): more sensitive to ionizing radiation (IR)
- THP1 cell proliferation ([2]; WT THP1 post cGAMP treatment): inhibited THP1 cell proliferation
- DDR signaling (γH2AX, pCHK2) [3]: exhibiting biochemical evidence of DDR signaling
- HDR suppression by cGAMP in rucaparib-pretreated cells ([4]; 1 μM Rucaparib): ineffective at HDR suppression in cells pretreated with rucaparib
- HDR in ATM inhibitor treated cells, mock vs. cGAMP ([4]; 25 μM KU-55933): still suppressed HDR
- HDR frequency ([4]; I-SceI with donor, 72 hours): significantly reduced the prevalence of HDR
- NHEJ frequency ([4]; I-SceI, 72 hours): unaffected in either case
- HDR-mediated CRISPR editing (mCherry positive cells) [5]: significantly dampened HDR-mediated CRISPR editing
- DNA damage-induced RAD51 and RPA foci formation [6]: suppressed DNA damage-induced RAD51 and RPA foci formation in EdU-positive S-phase cells
- PARP enzymatic activity in cell lysates ([7]; THP1, cGAMP 6 hours, Rucaparib 10 μM, 6 hr): reduction in the PARP enzymatic activity
- STING dependence of cGAMP-induced reduction in PARP enzymatic activity ([7]; WT and STING−/− THP1): dependent on STING
- abundance of PARP1 ([8]; THP1 and HEK293 cells): significantly augmented
- abundance of PARP1, PARP2, Tankyrase ([8]; cGAMP-stimulated cells): no decrease in the abundance of PARP1, PARP2, or Tankyrase
- TBK1 phosphorylation (pTBK1) [9]: TBK1 phosphorylation
- γH2AX [9]: elevated levels of γH2AX
- cGAMP-induced H2AX phosphorylation ([10]; Ifnar1−/− or Stat2−/− primary MEFs): unimpaired
- activation of DDR marker γH2AX ([10]; Irf3−/− primary MEFs, 16 hours): proceeded normally
- activation of DDR by cGAMP (γH2AX) ([10]; Sting−/− primary MEFs, 16 hours): abrogated by the deletion of STING
- DDR activation (γH2AX) ([10]; WT primary MEF, Pam3CSK4 500 ng/ml 6 hours, HT-DNA 4 ug/6-well 6 hours, 5′ppp-dsRNA 0.5 μg/6 well 6 hours, cGAMP 16 hours): activated the DDR
